Columns and labels:
[1] = tested on: human Gram-negative isolates comprising 19 E. aerogenes, 20 E. coli, 19 E. cloacae, 20 K. pneumoniae and 16 K. oxytoca; parameters: method as in PMID 30318716; settings: panel of human Gram-negative isolates; cited from earlier work
[2] = tested on: E. coli ATCC 25922; experiment: MIC, broth micro-dilution; assay type: cell-based, Escherichia coli; settings: Escherichia coli, ATCC25922, read-out: MIC, Single Drug
Experimental: (§1) A variety of Gram-negative reference strains (E. coli ATCC 25922, E. coli ATCC 10763, P. aeruginosa PAO1, P. aeruginosa ATCC 27853, A. baumannii ATCC 12457, A. baumannii ATCC 19606, K. pneumoniae ATCC 4352 and K. pneumoniae ATCC 33495) were used for initial screening and combination testing with PMB. The organisms were speciated using biochemical testing and MALDI-TOF mass spectrometry (Bruker, Preston, VIC, Australia). Activity testing of NCL259 and NCL265 was also carried out on 51 extraintestinal clinical E. coli isolates from companion animals, and 83 porcine and bovine enterotoxigenic E. coli (ETEC) isolates from the Australian Centre for Antimicrobial Resistance Ecology collection. E. coli wild-type (BW 25113) and its mutant BW 25113∆AcrB, in which the inner membrane component AcrB of the tripartite multidrug efflux system AcrA/AcrB/TolC has been deleted, were obtained from the bacterial collection held at Health and Biomedical Innovation, Clinical and Health Sciences, The University of South Australia. All isolates were cultured on sheep blood agar (SBA) plates at 37 °C for 18 h before being subcultured into Luria Bertaini (LB) (Oxoid, Scoresby, VIC, Australia) broth and grown to A600nm = 0.5 (equivalent to approx. 1.5 × 10^8 colony-forming units (CFU)/mL).
(§2) MICs for NCL259 and NCL265 (serial two-fold dilutions commencing at 256 µg/mL) were determined (in duplicate) in round bottom 96–well microtitre trays (Sarstedt 82.1582.001), using the broth micro-dilution method recommended by the Clinical and Laboratory Standards Institute (CLSI). We have shown previously that robenidine can chelate calcium ions from cation-adjusted Mueller-Hinton broth, which causes the loss of activity of robenidine. Therefore, LB broth was used in this study. Additionally, considering the low solubility of robenidine and its analogues in aqueous solutions, two-fold serial dilutions of stock solutions of these compounds were prepared in 100% DMSO [21]. The MIC for ampicillin against each isolate was determined for each test to serve as an internal quality control. The MICs of isolates were determined by visual reading and using an EnSpire Multimode Plate Reader 2300 at A600nm.

[3] = tested on: E. coli ATCC 10763; experiment: MIC, broth micro-dilution; assay type: cell-based, Escherichia coli; settings: Escherichia coli, ATCC10763, read-out: MIC, Single Drug
Experimental: as §1, §2

[4] = tested on: Gram-negative reference strains; experiment: Checkerboard with PMB over the reference strains; assay type: cell-based; settings: sub-inhibitory PMB
Experimental: MICs of NCL259 or NCL265 in the presence of the efflux pump inhibitor, PAβN were determined using a checkerboard assay. […] Briefly, a two-fold serial dilution of each antimicrobial solution was prepared in its appropriate solvent (e.g., DMSO for robenidine analogues and Milli-Q water for PAβN), and 1 μL of each dilution was added from wells 12 to 3 (12.8–0.25 μg/mL for robenidine analogues, and 32–2 μg/mL for PAβN). Thereafter, 89 μL of LB broth was added to each well followed by the addition of 10 μL of bacterial suspension (1–5 × 10^6 CFU/mL) to each well. In this manner, the final concentration of DMSO in each well was 1%. The plate was subsequently incubated at 37 °C for 24 h. The resazurin assay was used for assessment of drug susceptibility of NCL259 and NCL265 (Supplementary Table S1–S6). The same method was also used to test the MICs of NCL259 or NCL265 in the presence of PMB against a range of Gram-negative reference strains (E. coli ATCC 25922, E. coli ATCC 10763, P. aeruginosa PAO1, P. aeruginosa ATCC 27853, A. baumannii ATCC 12457, A. baumannii ATCC 19606, K. pneumoniae ATCC 4352 and K. pneumoniae ATCC 33495). […] The interaction of two antibiotics was calculated as the fractional inhibitory concentration index (FICI) using the following formula:(1) FICI=MICA in combination/MICA alone+MICB in combination/MICB alone where A is NCL259 or NCL265 and B is PAβN or PMB. […]

[5] = tested on: K. pneumoniae 13GNB–429; experiment: Checkerboard assay with PAβN; assay type: cell-based, Klebsiella pneumoniae; settings: for concentration at the marked interaction: resazurin
Experimental: (§3) MICs of NCL259 or NCL265 in the presence of the efflux pump inhibitor, PAβN were determined using a checkerboard assay. […] Briefly, a two-fold serial dilution of each antimicrobial solution was prepared in its appropriate solvent (e.g., DMSO for robenidine analogues and Milli-Q water for PAβN), and 1 μL of each dilution was added from wells 12 to 3 (12.8–0.25 μg/mL for robenidine analogues, and 32–2 μg/mL for PAβN). Thereafter, 89 μL of LB broth was added to each well followed by the addition of 10 μL of bacterial suspension (1–5 × 10^6 CFU/mL) to each well. In this manner, the final concentration of DMSO in each well was 1%. The plate was subsequently incubated at 37 °C for 24 h. The resazurin assay was used for assessment of drug susceptibility of NCL259 and NCL265 (Supplementary Table S1–S6). The same method was also used to test the MICs of NCL259 or NCL265 in the presence of PMB against a range of Gram-negative reference strains (E. coli ATCC 25922, E. coli ATCC 10763, P. aeruginosa PAO1, P. aeruginosa ATCC 27853, A. baumannii ATCC 12457, A. baumannii ATCC 19606, K. pneumoniae ATCC 4352 and K. pneumoniae ATCC 33495). Stock solutions were prepared prior to use (25.6–0.25 mg/mL for robenidine analogues; 12.8–0.25 mg/mL for PMB). The interaction of two antibiotics was calculated as the fractional inhibitory concentration index (FICI) using the following formula:(1) FICI=MICA in combination/MICA alone+MICB in combination/MICB alone where A is NCL259 or NCL265 and B is PAβN or PMB. According to FICI calculations, the interaction between two compounds were interpreted as follows: synergistic (FICI ≤ 0.5); additive or partially synergistic (0.5 < FICI ≤ 1); indifferent (1 < FICI ≤ 4); and antagonistic (FICI > 4), as described previously. The dose reduction index (DRI) was used to describe the difference between the effective doses of NCL259 or NCL265 in combination with PMB or PAβN in comparison to their individual doses, using the following formula:(2) DRI=MICA alone/MICA in combination
(§4) Evaluation of DRI is important clinically because it can allow the dose of a potentially toxic drug to be lowered in combination with another compound without reducing the drug’s efficacy. A DRI higher than 1 is viewed as beneficial.

[6] = tested on: K. pneumoniae 13GNB–550; experiment: Checkerboard assay with PAβN; assay type: cell-based, Klebsiella pneumoniae; settings: for concentration at the marked interaction: resazurin
Experimental: as §3, §4

[7] = tested on: K. pneumoniae ATCC 33495; experiment: MIC, broth micro-dilution; assay type: cell-based, Klebsiella pneumoniae; settings: Klebsiella pneumoniae, ATCC33495, read-out: MIC, Single Drug
Experimental: as §1, §2

[8] = tested on: K. pneumoniae ATCC 4352; experiment: MIC, broth micro-dilution; assay type: cell-based, Klebsiella pneumoniae; settings: Klebsiella pneumoniae, ATCC4352, read-out: MIC, Single Drug
Experimental: as §1, §2

[9] = tested on: E. coli-type strains ATCC 11229 and ATCC 25922; parameters: method as in PMID 30318716, PMID 31312589; settings: E. coli ATCC 11229 and ATCC 25922; cited from earlier work
[10] = K. pneumoniae 13GNB–429, PAβN + NCL259
[11] = Table S1, NCL259 + PAβN, replicate 1
[12] = Table S1, NCL259 + PAβN, replicate 2
[13] = K. pneumoniae 13GNB–550, PAβN + NCL259
[14] = Table S2, NCL259 + PAβN, replicate 2
[15] = K. pneumoniae 13GNB–429, PAβN + NCL265
[16] = Table S4, NCL265 + PAβN, replicate 1
[17] = Table S4, NCL265 + PAβN, replicate 2
[18] = K. pneumoniae 13GNB–550, PAβN + NCL265
[19] = Table S5, NCL265 + PAβN, replicate 1
[20] = Table S5, NCL265 + PAβN, replicate 2

For `[H]/N=C(\N)NN=C(CC1CCCCC1)c1ccc(Cl)cc1` [NCL259, (E)-2-(1-(4-chlorophenyl)-2-cyclohexylethylidene)hydrazine-1-carboximidamide], the MIC range [1] is listed as 2 to 64 µg/mL, the MIC [2] is listed as 16 µg/mL and the MIC [3] is listed as 64 µg/mL. For the same compound, the “reduction of MIC in combination with PMB” value [4] was 8- to 256 fold, the “DRI PAβN:NCL259” value ([5]; K. pneumoniae 13GNB–429) was 16 and the “Combination Effect” value [5, 10] was “Synergism (synergistic, FICI ≤ 0.5)”. For the same compound, the “MIC, Combination” value [5, 10] was 16 µg/mL, the interaction [5, 11] was “synergistic (synergistic (FICI ≤ 0.5))” and the interaction [5, 12] was “synergistic (synergistic (FICI ≤ 0.5))”. For the same compound, the “concentration at the marked interaction” value [5, 11] was 16 µg/mL, the “concentration at the marked interaction” value [5, 12] was 16 µg/mL and the “DRI PAβN:NCL259” value ([6]; K. pneumoniae 13GNB–550) was 32. The “Combination Effect” value [6, 13] was “Additivity (additive or partially synergistic, 0.5 < FICI ≤ 1)”, the FICI [6, 13] was 0.531 and the “MIC, Combination” value [6, 13] was 8 µg/mL. For the same compound, the interaction [6, 14] was “synergistic (synergistic (FICI ≤ 0.5))”, the “concentration at the marked interaction” value ([6]; Table S2, NCL259 + PAβN, replicate 1) was 16 µg/mL and the “concentration at the marked interaction” value [6, 14] was 16 µg/mL. The MIC [7] was 64 µg/mL, the MIC [8] was 8 µg/mL and the MBC [9] was 8 to 16 µg/mL. For the same compound, the MIC [9] was 8 to 16 µg/mL.
In the case of `[H]/N=C(\N)NN=C(CCCCCC)c1ccc(Cl)cc1` [NCL265, (E)-2-(1-(4-chlorophenyl)heptylidene)hydrazine-1-carboximidamide], the MIC range [1] is listed as 2 to 64 µg/mL, the MIC [2] is listed as 4 µg/mL and the MIC [3] is listed as 64 µg/mL. The “reduction of MIC in combination with PMB” value [4] was 4- to 256 fold, the “DRI PAβN:NCL265” value ([5]; K. pneumoniae 13GNB–429) was 64 and the “Combination Effect” value [5, 15] was “Additivity (additive or partially synergistic, 0.5 < FICI ≤ 1)”. For the same compound, the FICI [5, 15] was 0.516, the “MIC, Combination” value [5, 15] was 4 µg/mL and the interaction [5, 16] was “synergistic (synergistic (FICI ≤ 0.5))”. The interaction [5, 17] was “synergistic (synergistic (FICI ≤ 0.5))”, the “concentration at the marked interaction” value [5, 16] was 8 µg/mL and the “concentration at the marked interaction” value [5, 17] was 8 µg/mL. For the same compound, the “DRI PAβN:NCL265” value ([6]; K. pneumoniae 13GNB–550) was 64, the “Combination Effect” value [6, 18] was “Additivity (additive or partially synergistic, 0.5 < FICI ≤ 1)” and the FICI [6, 18] was 0.516. For the same compound, the “MIC, Combination” value [6, 18] was 4 µg/mL, the interaction [6, 19] was “synergistic (synergistic (FICI ≤ 0.5))” and the interaction [6, 20] was “synergistic (synergistic (FICI ≤ 0.5))”. For the same compound, the “concentration at the marked interaction” value [6, 19] was 8 µg/mL, the “concentration at the marked interaction” value [6, 20] was 8 µg/mL and the MIC [7] was 64 µg/mL. The MIC [8] was 2 µg/mL, the MBC [9] was 8 to 16 µg/mL and the MIC [9] was 8 to 16 µg/mL.

Reference: publication PMC9598656, “In Vitro Activity of Robenidine Analogues NCL259 and NCL265 against Gram-Negative Pathogens” (Antibiotics, 2022)
